Assay results taken from US12084437B2, “Halo-substituted piperidines as orexin receptor modulators” (AstraZeneca AB, priority 2016, dated 2024).
pIC50: −log10 of the molar value. Values belong to the compound of their own block, whether it stands above or below them.

Key:
[1] = biological target: T1, OX2 (Homo sapiens, UniProt O43614); experiment: Orexin receptor cell-based functional assay, [Ca2+]i by FLIPR, CHO-OX2 cells; conditions: FLIPR calcium, antagonism of EC90 of [OX]
T1 construct: expressed in transfected cells; host or cells: CHO (CHO-OX2)
T1 sequence (O43614 1-444): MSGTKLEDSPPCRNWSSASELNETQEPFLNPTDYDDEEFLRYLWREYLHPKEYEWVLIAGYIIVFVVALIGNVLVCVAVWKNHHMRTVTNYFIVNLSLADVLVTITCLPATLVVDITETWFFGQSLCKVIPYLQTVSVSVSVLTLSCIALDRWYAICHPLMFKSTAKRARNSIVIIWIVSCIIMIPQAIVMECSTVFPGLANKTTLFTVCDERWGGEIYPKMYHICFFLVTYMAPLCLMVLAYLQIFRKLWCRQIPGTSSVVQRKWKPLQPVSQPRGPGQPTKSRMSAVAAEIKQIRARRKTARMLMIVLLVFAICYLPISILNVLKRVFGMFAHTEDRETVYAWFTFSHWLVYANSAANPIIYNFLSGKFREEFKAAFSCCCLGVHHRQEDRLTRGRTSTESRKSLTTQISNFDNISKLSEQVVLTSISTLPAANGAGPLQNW
Experimental: (§1) Measurement of [Ca^2+]i using a FLIPR: CHO-OX1 or CHO-OX2 cells were seeded into black-walled clear-base 384-well plates (Corning, catalog #3712) at a density of 20,000 cells per well in F12-K medium supplemented with 10% FBS and then incubated in a 5% CO2, 37° C. incubator overnight to reach 90% confluency. The cells were incubated with equal volume of calcium6 loading buffer (Molecular Devices, Inc.) containing 2.5 mM probenecid at 37° C. for 2 h, followed by test compounds (dose-range 0.1 nM-10 μM) for another 30 min. The plates were then placed into a FLIPR (Molecular Devices, Inc.) to monitor fluorescence (λ excitation 488 nm, λ emission 540 nm) before and after the addition of EC90 of [OX]. Results for exemplary compounds of Formulae (I), (Ia), (Ib), (II), (IIa), (III), (IIIa), (IV), (IVa), (V), or (Va) are shown in Table 3.

[2] = biological target: T2, OX1 (Homo sapiens, UniProt O43613); experiment: Orexin receptor cell-based functional assay, [Ca2+]i by FLIPR, CHO-OX1 cells; conditions: FLIPR calcium, antagonism of EC90 of [OX], read-out: OXI, IC50
T2 construct: expressed in transfected cells; host or cells: CHO (CHO-OX1)
T2 sequence (O43613 1-425): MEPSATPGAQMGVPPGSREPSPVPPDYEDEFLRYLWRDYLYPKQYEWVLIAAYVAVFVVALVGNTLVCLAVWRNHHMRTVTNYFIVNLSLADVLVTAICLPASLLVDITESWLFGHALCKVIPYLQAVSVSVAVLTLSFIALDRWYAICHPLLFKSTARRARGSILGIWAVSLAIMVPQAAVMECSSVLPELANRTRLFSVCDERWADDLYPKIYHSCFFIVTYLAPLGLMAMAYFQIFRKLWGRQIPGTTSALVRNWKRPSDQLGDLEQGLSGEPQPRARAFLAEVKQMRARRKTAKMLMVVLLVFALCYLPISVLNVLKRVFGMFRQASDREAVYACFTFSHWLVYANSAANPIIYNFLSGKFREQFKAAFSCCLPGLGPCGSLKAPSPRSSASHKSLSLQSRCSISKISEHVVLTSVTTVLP
Experimental: as §1, with “[OX].” for “[OX]. Results for exemplary compounds of Formulae (I), (Ia), (Ib), (II), (IIa), (III), (IIIa), (IV), (IVa), (V), or (Va) are shown in Table 3.”

pIC50 [1]: < 5.30 | pIC50 [2]: 7.09
Compound: C[C@@H]1CC(F)(F)CN(C(=O)c2cc(Cl)ccc2-n2ncnn2)[C@@H]1CNc1ncc(C(F)(F)F)cn1 [Compound 4]

pIC50 [1]: < 5.30 | pIC50 [2]: 7.82
Compound: Cc1ccc(-n2nccn2)c(C(=O)N2CC(F)(F)C[C@@H](C)[C@H]2CNc2ncc(C(F)(F)F)cn2)n1 [Compound 12]

pIC50 [1]: < 5.30 | pIC50 [2]: 7.21
Compound: C[C@@H]1CC(F)(F)CN(C(=O)c2nn(C)cc2-c2cnccn2)[C@@H]1CNc1ncc(C(F)(F)F)cn1 [Compound 224, ((2S,3R)-5,5-difluoro-3-methyl-2-(((5-(trifluoromethyl)pyrimidin-2-yl)amino)methyl)piperidin-1-yl)(1-methyl-4-(pyrazin-2-yl)-1H-pyrazol-3-yl)methanone]

pIC50 [1]: < 5.30 | pIC50 [2]: 7.77
Compound: Cc1ccnc(-c2cn(C)nc2C(=O)N2CC(F)(F)C[C@@H](C)[C@H]2CNc2ncc(C(F)(F)F)cn2)n1 [Compound 225, ((2S,3R)-5,5-difluoro-3-methyl-2-(((5-(trifluoromethyl)pyrimidin-2-yl)amino)methyl)piperidin-1-yl)(1-methyl-4-(4-methylpyrimidin-2-yl)-1H-pyrazol-3-yl)methanone]

pIC50 [1]: < 5.30 | pIC50 [2]: 8.15
Compound: Cc1ccc(-n2ncc(C)n2)c(C(=O)N2CC(F)(F)C[C@@H](C)[C@H]2CNc2ncc(C(F)(F)F)cn2)c1 [Compound 7]

pIC50 [1]: < 5.30 | pIC50 [2]: 7.92
Compound: C[C@@H]1CC(F)(F)CN(C(=O)c2nn(C)cc2-c2ncccn2)[C@@H]1CNc1ncc(C(F)(F)F)cn1 [Compound 97, ((2S,3R)-5,5-difluoro-3-methyl-2-(((5-(trifluoromethyl)pyrimidin-2-yl)amino)methyl)piperidin-1-yl)(1-methyl-4-(pyrimidin-2-yl)-1H-pyrazol-3-yl)methanone]

pIC50 [1]: < 5.30 | pIC50 [2]: 8.10
Compound: Cc1ccc(-c2ncccn2)c(C(=O)N2CC(F)(F)C[C@@H](C)[C@H]2CNc2ncc(C(F)(F)F)cn2)n1 [Compound 17, ((2S,3R)-5,5-difluoro-3-methyl-2-(((5-(trifluoromethyl)pyrimidin-2-yl)amino)methyl)piperidin-1-yl)(6-methyl-3-(pyrimidin-2-yl)pyridin-2-yl)methanone]

pIC50 [1]: < 5.30 | pIC50 [2]: 9.00
Compound: Cc1c(-c2ncccn2)c(C(=O)N2CC(F)(F)C[C@@H](C)[C@H]2CNc2ncc(C(F)(F)F)cn2)nn1C [Compound 233, ((2S,3R)-5,5-difluoro-3-methyl-2-(((5-(trifluoromethyl)pyrimidin-2-yl)amino)methyl)piperidin-1-yl)(1,5-dimethyl-4-(pyrimidin-2-yl)-1H-pyrazol-3-yl)methanone]

pIC50 [1]: < 5.30 | pIC50 [2]: 7.28
Compound: C[C@@H]1CC(F)(F)CN(C(=O)c2cc(C#N)ccc2-n2nccn2)[C@@H]1CNc1ncc(C(F)(F)F)cn1 [Compound 14]

Further lines, the compound ahead of its results:

Compound: C[C@@H]1CC(F)(F)CN(C(=O)c2nn(C)cc2-c2ncccn2)[C@@H]1CNc1ccc(C(F)(F)F)cn1 [Compound 200, ((2S,3R)-5,5-difluoro-3-methyl-2-(((5-(trifluoromethyl)pyridin-2-yl)amino)methyl)piperidin-1-yl)(1-methyl-4-(pyrimidin-2-yl)-1H-pyrazol-3-yl)methanone]
pIC50 [1]: < 5.30 | pIC50 [2]: 8.40

Compound: C[C@@H]1CC(F)(F)CN(C(=O)c2nn(C)cc2-c2ccccc2)[C@@H]1CNc1ncc(Cl)cn1 [Compound 22]
pIC50 [1]: < 5.30 | pIC50 [2]: 8.15

Compound: Cc1nc(C(=O)N2CC(F)(F)C[C@@H](C)[C@H]2CNc2ncc(C(F)(F)F)cn2)c(-c2ccccc2)s1 [Compound 65]
pIC50 [1]: < 5.30 | pIC50 [2]: 8.70

Compound: COc1cccc(-c2cn(C)nc2C(=O)N2CC(F)(F)C[C@@H](C)[C@H]2CNc2cnc(C(F)(F)F)cn2)c1 [Compound 124]
pIC50 [1]: 6.00 | pIC50 [2]: 8.40

Compound: C[C@@H]1CC(F)(F)CN(C(=O)c2cn(C)nc2-c2ccccc2)[C@@H]1CNc1ncc(Cl)cn1 [Compound 254]
pIC50 [1]: < 5.30 | pIC50 [2]: 7.15

Compound: Cc1ccc(-c2cn(C)nc2C(=O)N2CC(F)(F)C[C@@H](C)[C@H]2CNc2ccc(C(F)(F)F)cn2)cc1 [Compound 175]
pIC50 [1]: 5.38 | pIC50 [2]: 8.40

Compound: C[C@@H]1CC(F)(F)CN(C(=O)c2nn(C)cc2-c2ncc(C(F)(F)F)cn2)[C@@H]1CNc1ncc(C(F)(F)F)cn1 [Compound 226, ((2S,3R)-5,5-difluoro-3-methyl-2-(((5-(trifluoromethyl)pyrimidin-2-yl)amino)methyl)piperidin-1-yl)(1-methyl-4-(5-(trifluoromethyl)pyrimidin-2-yl)-1H-pyrazol-3-yl)methanone]
pIC50 [1]: < 5.30 | pIC50 [2]: 6.46

Compound: C[C@@H]1CC(F)(F)CN(C(=O)c2nn(C)cc2-c2cccnc2)[C@@H]1CNc1ncc(C(F)(F)F)cn1 [Compound 90]
pIC50 [1]: < 5.30 | pIC50 [2]: 6.69

Compound: C[C@@H]1CC(F)(F)CN(C(=O)c2nn(C)cc2-c2ncccn2)[C@@H]1COc1ncc(C(F)(F)F)cc1F [Compound 247]
pIC50 [1]: < 5.30 | pIC50 [2]: 6.36

Compound: C[C@@H]1CC(F)(F)CN(C(=O)c2nn(C)cc2-c2ccccc2)[C@@H]1CNc1cnc(C(F)(F)F)cn1 [Compound 120, ((2S,3R)-5,5-difluoro-3-methyl-2-(((5-(trifluoromethyl)pyrazin-2-yl)amino)methyl)piperidin-1-yl)(1-methyl-4-phenyl-1H-pyrazol-3-yl)methanone]
pIC50 [1]: < 5.30 | pIC50 [2]: 8.70

Compound: Cc1ccc(-c2sc(C)nc2C(=O)N2CC(F)(F)C[C@@H](C)[C@H]2CNc2ccc(C(F)(F)F)cn2)cc1 [Compound 186]
pIC50 [1]: < 5.30 | pIC50 [2]: 8.22

Compound: C[C@@H]1CC(F)(F)CN(C(=O)c2nn(C)cc2-c2ncccn2)[C@@H]1CNc1ncc(C(F)(F)F)cc1F [Compound 228, ((2S,3R)-5,5-difluoro-2-(((3-fluoro-5-(trifluoromethyl)pyridin-2-yl)amino)methyl)-3-methylpiperidin-1-yl)(1-methyl-4-(pyrimidin-2-yl)-1H-pyrazol-3-yl)methanone]
pIC50 [1]: < 5.30 | pIC50 [2]: 7.85

Compound: C[C@@H]1CC(F)(F)CN(C(=O)c2cc(Cl)ccc2-c2nnn(C)n2)[C@@H]1COc1ccc(C(F)(F)F)cn1 [Compound 216, (5-chloro-2-(2-methyl-2H-tetrazol-5-yl)phenyl)((2S,3R)-5,5-difluoro-3-methyl-2-(((5-(trifluoromethyl)pyridin-2-yl)oxy)methyl)piperidin-1-yl)methanone]
pIC50 [1]: < 5.30 | pIC50 [2]: 8.40

Compound: C[C@@H]1CC(F)(F)CN(C(=O)c2nn(C)nc2-c2ccccc2)[C@@H]1CNc1ncc(C(F)(F)F)cn1 [Compound 82]
pIC50 [1]: < 5.30 | pIC50 [2]: 7.35

Compound: Cc1ccc(-c2ncccn2)c(C(=O)N2CC(F)(F)C[C@@H](C)[C@H]2CNc2ncc(Cl)cn2)n1 [Compound 18, ((2S,3R)-2-(((5-chloropyrimidin-2-yl)amino)methyl)-5,5-difluoro-3-methylpiperidin-1-yl)(6-methyl-3-(pyrimidin-2-yl)pyridin-2-yl)methanone]
pIC50 [1]: < 5.30 | pIC50 [2]: 7.74

Compound: COc1cccc(-c2cn(C)nc2C(=O)N2CC(F)(F)C[C@@H](C)[C@H]2CNc2cnc(C(F)(F)F)cn2)n1 [Compound 136]
pIC50 [1]: < 5.30 | pIC50 [2]: 7.40

Compound: C[C@@H]1CC(F)(F)CN(C(=O)c2nn(C)cc2-c2ccc(F)cn2)[C@@H]1CNc1ncc(C(F)(F)F)cn1 [Compound 42]
pIC50 [1]: < 5.30 | pIC50 [2]: < 6.00
